Assay results reported in US20240197719A1 (priority 2018, published 2024).

Legend:
[1] = in vivo
[2] = in vivo; cited from earlier work
[3] = in vivo, iv; cited from earlier work

SMILES | AUC [1] | incidence of adverse events [2] | incidence of common adverse reactions [2] | reported half-life [3]
O=C1CC[C@@]2(O)[C@H]3Cc4ccc(O)c5c4[C@@]2(CCN3CC2CC2)[C@H]1O5 [naltrexone] | increased significantly | – | – | –
C=C1CC[C@@]2(O)[C@H]3Cc4ccc(O)c5c4[C@@]2(CCN3CC2CC2)[C@H]1O5 [Nalmefene, 17-cyclopropylmethyl-4,5α-epoxy-6-methylenemorphinan-3,14-diol] | – | less than 1% | greater than 1% | 8 to 10.8 h
